± gives the expanded uncertainty stated by the source.
Columns and labels:
[1] = Molar enthalpy of transition or fusion; conditions: Adiabatic calorimetry
[2] = molar heat capacity at constant pressure; conditions: 101.33 kPa

SMILES: CCCCn1cc[n+](C)c1.Cc1ccc(S(=O)(=O)[O-])cc1 [1-butyl-3-methylimidazolium tosylate]
- Molar enthalpy of transition or fusion ([1]; Crystal 1): 21.6 ± 0.24 kJ/mol
- Molar enthalpy of transition or fusion ([1]; Crystal 2): 0.194 ± 0.2 kJ/mol
- Molar enthalpy of transition or fusion ([1]; Metastable crystal): 19.9 ± 0.26 kJ/mol
- Triple point temperature (Crystal 1, Adiabatic calorimetry): 343.8 ± 0.67 K
- Triple point temperature (Crystal 2, Adiabatic calorimetry): 152 ± 1 K
- Triple point temperature (Metastable crystal): 342.48 ± 0.2 K
- molar heat capacity at constant pressure ([2]; 5 K, Crystal 2): 2.54 ± 0.13 J/K/mol
- molar heat capacity at constant pressure ([2]; 10 K, Crystal 2): 11.91 ± 0.42 J/K/mol
- molar heat capacity at constant pressure ([2]; 15 K, Crystal 2): 24.31 ± 0.72 J/K/mol
- molar heat capacity at constant pressure ([2]; 20 K, Crystal 2): 37.67 ± 0.95 J/K/mol
- molar heat capacity at constant pressure ([2]; 25 K, Crystal 2): 51.27 ± 1.1 J/K/mol
- molar heat capacity at constant pressure ([2]; 30 K, Crystal 2): 64.46 ± 0.85 J/K/mol
- molar heat capacity at constant pressure ([2]; 35 K, Crystal 2): 76.73 ± 0.96 J/K/mol
- molar heat capacity at constant pressure ([2]; 40 K, Crystal 2): 87.97 ± 1.1 J/K/mol
- molar heat capacity at constant pressure ([2]; 45 K, Crystal 2): 98.44 ± 1.2 J/K/mol
- molar heat capacity at constant pressure ([2]; 50 K, Crystal 2): 108.3 ± 1.2 J/K/mol
- molar heat capacity at constant pressure ([2]; 60 K, Crystal 2): 125.9 ± 1.5 J/K/mol
- molar heat capacity at constant pressure ([2]; 70 K, Crystal 2): 141.6 ± 1.6 J/K/mol
- molar heat capacity at constant pressure ([2]; 80 K, Crystal 2): 156 ± 1.7 J/K/mol
- molar heat capacity at constant pressure ([2]; 90 K, Crystal 2): 169.3 ± 1.7 J/K/mol
- molar heat capacity at constant pressure ([2]; 100 K, Crystal 2): 181.9 ± 1.8 J/K/mol
- molar heat capacity at constant pressure ([2]; 105 K, Crystal 2): 188.1 ± 1.9 J/K/mol
- molar heat capacity at constant pressure ([2]; 110 K, Crystal 2): 194.1 ± 1.9 J/K/mol
- molar heat capacity at constant pressure ([2]; 120 K, Crystal 2): 206 ± 2.1 J/K/mol
- molar heat capacity at constant pressure ([2]; 130 K, Crystal 2): 218 ± 2.2 J/K/mol
- molar heat capacity at constant pressure ([2]; 140 K, Crystal 2): 230 ± 2.2 J/K/mol
- molar heat capacity at constant pressure ([2]; 150 K, Crystal 2): 241.9 ± 2.3 J/K/mol
- molar heat capacity at constant pressure ([2]; 152.77 K, Crystal 1): 238.4 ± 2.3 J/K/mol
- molar heat capacity at constant pressure ([2]; 152.77 K, Crystal 2): 245.2 ± 2.3 J/K/mol
- molar heat capacity at constant pressure ([2]; 160 K, Crystal 1): 246.2 ± 2.4 J/K/mol
- molar heat capacity at constant pressure ([2]; 170 K, Crystal 1): 257 ± 2.5 J/K/mol
- molar heat capacity at constant pressure ([2]; 180 K, Crystal 1): 267.8 ± 2.6 J/K/mol
- molar heat capacity at constant pressure ([2]; 190 K, Crystal 1): 278.8 ± 2.7 J/K/mol
- molar heat capacity at constant pressure ([2]; 200 K, Crystal 1): 289.9 ± 2.7 J/K/mol
- molar heat capacity at constant pressure ([2]; 210 K, Crystal 1): 301.5 ± 2.8 J/K/mol
- molar heat capacity at constant pressure ([2]; 220 K, Crystal 1): 313.3 ± 2.9 J/K/mol
- molar heat capacity at constant pressure ([2]; 230 K, Crystal 1): 335.4 ± 3.1 J/K/mol
- molar heat capacity at constant pressure ([2]; 240 K, Crystal 1): 348.3 ± 3.2 J/K/mol
- molar heat capacity at constant pressure ([2]; 250 K, Crystal 1): 359.9 ± 3.2 J/K/mol
- molar heat capacity at constant pressure ([2]; 260 K, Crystal 1): 371.2 ± 3.4 J/K/mol
- molar heat capacity at constant pressure ([2]; 270 K, Crystal 1): 382.3 ± 3.5 J/K/mol
- molar heat capacity at constant pressure ([2]; 280 K, Crystal 1): 393.3 ± 3.6 J/K/mol
- molar heat capacity at constant pressure ([2]; 290 K, Crystal 1): 404.1 ± 3.7 J/K/mol
- molar heat capacity at constant pressure ([2]; 298.15 K, Crystal 1): 412.7 ± 3.7 J/K/mol
- molar heat capacity at constant pressure ([2]; 300 K, Crystal 1): 414.6 ± 3.7 J/K/mol
- molar heat capacity at constant pressure ([2]; 310 K, Crystal 1): 425 ± 3.8 J/K/mol
- molar heat capacity at constant pressure ([2]; 320 K, Crystal 1): 435.3 ± 3.9 J/K/mol
- molar heat capacity at constant pressure ([2]; 330 K, Crystal 1): 445.3 ± 4 J/K/mol
- molar heat capacity at constant pressure ([2]; 340 K, Crystal 1): 455.1 ± 4.1 J/K/mol
- molar heat capacity at constant pressure ([2]; 343.89 K, Crystal 1): 458.7 ± 4.1 J/K/mol
- molar heat capacity at constant pressure ([2]; 343.89 K, Liquid): 543.4 ± 4.7 J/K/mol
- molar heat capacity at constant pressure ([2]; 350 K, Liquid): 548.4 ± 4.8 J/K/mol
- molar heat capacity at constant pressure ([2]; 360 K, Liquid): 556 ± 4.8 J/K/mol
- molar heat capacity at constant pressure ([2]; 370 K, Liquid): 563.1 ± 4.9 J/K/mol
- molar heat capacity at constant pressure ([2]; 380 K, Liquid): 569.8 ± 5 J/K/mol

— the NIST ThermoML archive (doi:10.1021/je700152c)
